Key:
[1] = system: cellules de la Lignée L.1210; assay: Cytostatic activity: growth inhibition of L.1210 cells; assay type: cell-based; conditions: L.1210 cells in culture
Experimental: Cette activité est étudiée en mesurant le pouvoir d'in- hibition de la croissance de cellules de la Lignée L.1210 cultivée sur un milieu approprié.
Ce pouvoir est exprimé en poids de produit par 10^5 cellules inhibant de 50 % la croissance cellulaire.
Pour la substance de l'exemple 5, ce poids est de 6 µg/10^5 cellules, pour celle de l'exemple 7, il est de 4 µg/10^5 cellules.

facteurs de coagulation = assay: Activity on coagulation factors: thrombo-elastography on blood samples (terms r and k)
Text: L'étude est faite par thrombo-élastographie sur des échantillons sanguins auxquels sont ajoutées des quantités dosées des substances actives selon l'invention.
La mesure des termes r (temps d'apparition de la fibrine pendant lequel la viscosité ne varie pas) et k (temps d'accroissement de la viscosité jusqu'à une valeur donnée) montre, pour les échantillons traités à l'aide de la substance de l'exemple 7, une augmentation de 32 % pour 10/ug/ml et de 45 % pour 100/ug/ml.

fibrillation = assay: Antifibrillant activity: chloroform-induced cardiac fibrillation in mice; assay type: in vivo, souris; conditions: 100 mg/kg i.p., 15 min before chloroform exposure
Experimental: Pour ces essais, on utilise comme précédemment des lots de 10 souris auxquelles sont administrés, par voie intrapéritonéale, 0,5 ml d'une solution ou suspension de substance étudiée dans du soluté isotonique.
Les souris sont traitées suivant une méthode voisine de celle décrite par B. Vargaftig et J.L. Coignet (Eur. J. Pharmacol., 1969, 6, 49). Selon cette méthode, les souris sont soumises à une atmosphère chargée d'une quantité déterminée de chloroforme. Lorsque les mouvements respiratoires cessent, le thorax est ouvert et le coeur examiné pour l'observation des tremblements superficiels très rapides. La fibrillation est positive lorsque ces mouvements sont observés pendant plus de 5 secondes.
La substance étudiée est administrée à raison de 100 mg/kg 15 minutes avant l'exposition au chloroforme.
La protection observée pour les substances des exemples 22 et 27 est d'environ 30 %.

vomissements = assay: Antiemetic activity: apomorphine-induced vomiting in dogs; assay type: in vivo, chiens Beagle; conditions: 1 mg/kg intramuscular, 30 min before apomorphine 0,1 mg/kg s.c., vomiting counted for the next half hour
Experimental: Les essais sont effectués sur des chiens Beagle adultes de 8 à 12 kg, qui sont mis à jeun pendant 24 heures.
Chaque animal est son propre témoin, un essai sans protection étant réalisé 8 jours avant l'essai proprement dit en présence de la substance étudiée.
Les substances étudiées sont administrées dans du soluté isotonique à raison de 1 mg/kg et par voie intramusculaire. 30 minutes après, on injecte l'apomorphine par voie sous-cutanée, à raison de 0,1 mg/kg., et l'on dénombre les vomissements dans la demi-heure suivante.
Dans ces conditions, on a observé, pour les substances des exemples 22, 24, 26 et 27, une réduction du nombre de vomissements qui est respectivement de 50,8 %, 28,2 %, 44,2 %, 47,6 %.

[2] = system: ulcères provoqués par immobilisation; assay: Antiulcer activity: restraint (immobilisation) ulcer in rats; assay type: in vivo; conditions: rat, 10 mg/kg i.p., compared with controls
Experimental: Elle est déterminée sur les ulcères provoqués par immobilisation chez le rat. La méthode de mesure est celle décrite par G. Narcisse (Thérapie, 1972, 27, 705). La substance est administrée par voie intrapéritonéale, à raison de 10 mg/kg.
Par comparaison avec des témoins, le pourcentage de protection, dans le cas du produit de l'exemple 22, est de 61,3 %.

| Compound | poids de produit par 10^5 cellules inhibant de 50 % la croissance cellulaire [1] [µg/10^5 cellules] | protection (fibrillation) (fibrillation) [%] | réduction du nombre de vomissements (vomissements) | also measured |
| --- | --- | --- | --- | --- |
| COc1ccccc1S(=O)(=O)CCCl [Exemple 5] | 6 |  |  |  |
| COc1ccc(Cl)cc1S(=O)(=O)CCCl [Exemple 7] | 4 |  |  | augmentation des termes r et k (facteurs de coagulation; 10/ug/ml added to blood samples): 32%; augmentation des termes r et k (facteurs de coagulation; 100/ug/ml added to blood samples): 45% |
| COc1ccc(Cl)cc1S(=O)(=O)CCN1CCOCC1 [Exemple 22] |  | ~30 | 50,8% | pourcentage de protection [2]: 61,3% |
| COc1ccc(Cl)cc1S(=O)(=O)CCN1CCCCC1 [Exemple 24] |  |  | 28,2% |  |
| COc1ccc(Cl)cc1S(=O)(=O)CCCN1CCCC1 [Exemple 26] |  |  | 44,2% |  |
| COc1ccc(Cl)cc1S(=O)(=O)CCCN1CCCCC1 [Exemple 27] |  | ~30 | 47,6% |  |

Source: patent EP0008269A1, “Medicines containing as active ingredients compounds of the benzene-sulfone type; compounds of this type and process for their preparation” (CHOAY S.A., priority 1978, dated 1980)
